Measured values from US20020151876A1, “Devices and methods for management of bone density” (priority 2001, published 2002).

Tests used:
[1] = tested on: patients with Crohn's disease; settings: cited from earlier work
patients = settings: long-term use; cited from earlier work
osteoblast-like cells = settings: cited from earlier work
tumor burden in bone = settings: two separate studies, relatively small number of patients; cited from earlier work
rabbit model = test: local response to subcutaneous injection, skin reaction scoring (erythema, eschar, edema, necrosis); type: in vivo
Method: A test was performed to evaluate the local response to pamidronate sodium following subcutaneous injection into a rabbit model.
The pamidronate sodium was reconstituted with 10 mL of phosphate buffered saline (PBS) to achieve a concentration of 9 mg/mL. The 9 mg/mL. solution was then diluted to achieve a concentration of 0.9 mg/mL.
On the day of the test, the fur on the back of each animal was removed on both sides of the spinal column with electric clippers. A 0.1 mL portion of two concentrations of the sample solution was injected subcutaneously at each of three sites along the spinal column of each of two rabbits. A 0.1 mL portion of PBS was injected subcutaneously at three sites along the other side of the spinal column of the same two rabbits. […] Scoring was at 24 hours, 48 hours, and 72 hours. All of the animals were observed daily for signs of ill health.
The injection sites were examined and scored for any tissue reactions, with results scored according to Table 1.
The average erythema and edema scores for each test article and controls are determined at each scoring interval (24, 48, and 72 hours) for each rabbit.

NCCCC(O)(P(=O)(O)O)P(=O)(O)O [alendronate]
safety and tolerability [1]: safe and well tolerated

NC(=O)N1c2ccccc2C=Cc2ccccc21 [carbamazepine]
bone mass in patients (patients): decrease bone mass | proliferation of osteoblast-like cells (osteoblast-like cells): directly suppress proliferation

O=P(O)(O)C(Cl)(Cl)P(=O)(O)O [clodronate]
tumor burden in bone (tumor burden in bone): decreases tumor burden in bone

NCCC(O)(P(=O)(O)O)P(=O)(O)O [pamidronate sodium]
injection site reaction (in words) (rabbit model; any of the 0.9 mg/mL sites): no evidence of erythema or edema | injection site reaction (in words) (rabbit model; one 9 mg/mL site on one rabbit, 48 and 72 hours): Slight erythema | injection site reaction (in words) (rabbit model; one of the 9 mg/mL sites, 24 hours, both animals): Slight erythema | signs of ill health, daily observation (rabbit model; rabbits, throughout the test period (72 hours)): remained healthy

O=C1NC(=O)C(c2ccccc2)(c2ccccc2)N1 [phenytoin]
bone mass in patients (patients): decrease bone mass | proliferation of osteoblast-like cells (osteoblast-like cells): directly suppress proliferation
